According to US20230042917A1, “DIRECT REPROGRAMMING OF SOMATIC CELLS INTO MYOGENIC CELLS” (THE GENERAL HOSPITAL CORPORATION, priority 2016, published 2023):

Tested on: MEFs expressing MyoD
Test: Reprogramming of MyoD-expressing MEFs with small molecules (myotubes, proliferative cells, contraction, Pax7 staining)
Assay type: cell-based, mouse
Settings: for formation of MyHC+, polynucleated myotubes / generation of proliferative cells: Knockout DMEM, 10% KOSR, 10% FBS, 10 ng/ml bFGF
Description: A doxycycline (dox) inducible lentiviral system (tetOP-MyoD) was engineered, allowing for inducible and reversible activation of MyoD in target cells. […] The myogenic identity of converted cells was confirmed by immunofluorescence staining for the differentiation marker myosin heavy chain (MyHC), which was absent in uninfected MEFs (FIG. 14C).
MEFs undergoing MyoD-induced lineage conversion were exposed to various small molecules and cytokines in an attempt to induce reprogramming into a proliferative, myogenic progenitor-like cell state in addition to mature myotubes (FIG. 14A, bottom row). Specifically, compounds including the GSK3β inhibitor CHIR99021 (abbreviated as “G”) and the TGF-01 receptor inhibitor RepSox (abbreviated as “R”) were used. In addition, the effect of the cyclic AMP agonist Forskolin (abbreviated as “F”), which reportedly facilitates the transient expansion of satellite cells in vitro was tested. These compounds were added individually or combinatorially to MEFs expressing MyoD and cultured in Knockout DMEM media containing 10% KOSR and 10% FBS and supplemented with 10 ng/ml bFGF, which promotes satellite cell and myoblast growth. […] Cultures treated with these small molecules typically assembled into three-dimensional colonies with emanating myotubes and numerous small, round cells that seem to be muscle progenitors (FIG. 14B and live video monitoring was used to monitor the muscle progenitors). KOSR media contains ascorbic acid, which enhances reprogramming into iPSCs by modulating epigenetic regulators. To determine whether ascorbic acid is required for the induction of these proliferative, putative progenitor cells using our culture system, MEFs expressing MyoD were exposed to F/R in the presence or absence of ascorbic acid using DMEM media containing FBS and bFGF but lacking KOSR.
To assess the temporal requirement for exogenous MyoD expression and small molecules during the establishment and maintenance of our progenitor-like cell population, infected MEFs were treated with dox for 0, 2, 4, 6, 8 or 10 days in the presence of F/R, followed by 5 days of dox withdrawal before scoring for colonies that proliferated and contracted (FIG. 14G). […] By contrast, continuous exposure of cultures to F/R was required to maintain these cultures upon passaging (FIG. 14G and data not shown). Thus, without being bound by any particular theory, small molecules and growth factors collaborate with transient MyoD expression to endow MEFs with a myogenic progenitor-like state. These cells are provisionally termed “induced myogenic progenitor cells” (iMPCs).
Mouse embryonic fibroblasts (MEFs), Tail-tip fibroblasts (TTFs) and the commercial myoblast cell line C2C12 (ATCC®CRL-1772™) were cultured in “MEF medium” containing DMEM (ThermoFisher Scientific, catalog number 10313-021), supplemented with 10% Fetal Bovine Serum (FBS) (HyClone catalog number SH30396.03), 1% GlutaMAX (ThermoFisher Scientific, catalog number 35050061), 1% non-essential amino acids (ThermoFisher Scientific, catalog number 11140050), 1% penicillin-streptomycin (ThermoFisher Scientific, catalog number 15140122), 0.5% β-mercaptoethanol (ThermoFisher Scientific, catalog number 21985-023). Freshly isolated satellite cells and derivative myoblasts were cultured using a 1:1 ratio of DMEM and F-10 (1×) Nutrient mix (ThermoFisher Scientific, catalog number 11550-043) supplemented with 10% horse serum (ThermoFisher Scientific, catalog number 16050-122), 20% FBS (HyClone catalog number SH30396.03) and […] basic-FGF (R&D 233-FB). Satellite cells and myoblasts were cultured on plates coated with Matrigel Basement Membrane Matrix (Catalog number 356237, Corning). […]

SMILES	formation of MyHC+, polynucleated myotubes (MEFs expressing MyoD)	generation of proliferative cells (MEFs expressing MyoD)	Pax7+ cells (immunofluorescence) (MEFs expressing MyoD, in the presence of KOSR or ascorbate)	generation of proliferative cells and contracting myotubes (MEFs expressing MyoD exposed to F/R, DMEM with FBS and bFGF lacking KOSR)	Pax7+ iMPC formation after withdrawal of SR (MyoD + FR, medium without serum replacement)
Cc1cccc(-c2n[nH]cc2-c2ccc3ncccc3n2)n1 [R, 2-3[(6-methyl-2-pyridinyl)-1H-pyrazol-4-yl]-1,5-napthyridine]	increased	did not generate any proliferative cells	–	–	–
Cc1c[nH]c(-c2cnc(NCCNc3ccc(C#N)cn3)nc2-c2ccc(Cl)cc2Cl)n1 [G, CHIR99021]	increased	did not generate any proliferative cells	only in the presence of FR	–	–
O=C1O[C@H]([C@@H](O)CO)C(O)=C1O [ascorbic acid]	–	–	–	depended on ascorbic acid	partially rescues this phenotype
